Assay type in all cases: toxicity, organism-based
Conditions in all cases: salmonella enterica subsp. enterica serovar typhimurium

Series [1] relates to Salmonella typhimurium. Nature of the series: Induction of mutagenesis in Salmonella typhimurium TA98 up to 5000 ug/plate by Ames test. (In general: In the Ames test, an excess of revertant colonies over the control signals mutagenicity.)
For series [2], the system named is Salmonella typhimurium. The series can be described thus: Induction of mutagenesis in Salmonella typhimurium TA100 up to 5000 ug/plate by Ames test.
Series [3] deals with Salmonella typhimurium. Nature of the series: Induction of mutagenesis in Salmonella typhimurium TA98 at 160 ug/plate by Ames test in presence of rat liver S9 fraction relative to control.
In series [4] the test system is Salmonella typhimurium. Nature of the series: Induction of mutagenesis in Salmonella typhimurium TA100 at 160 ug/plate by Ames test in presence of rat liver S9 fraction relative to control.
Series [5] deals with Salmonella typhimurium. Nature of the series: Induction of mutagenesis in Salmonella typhimurium TA98 at 50 ug/plate by Ames test in presence of rat liver S9 fraction relative to control.
Series [6] concerns Salmonella typhimurium. The series can be described thus: Induction of mutagenesis in Salmonella typhimurium TA100 at 50 ug/plate by Ames test in presence of rat liver S9 fraction relative to control.
For series [7], the system named is Salmonella typhimurium. Nature of the series: Induction of mutagenesis in Salmonella typhimurium TA98 at 1600 ug/plate by Ames test in presence of rat liver S9 fraction relative to control.
In series [8] the test system is Salmonella typhimurium. Nature of the series: Induction of mutagenesis in Salmonella typhimurium TA100 up to 5000 ug/plate by Ames test in presence of rat liver S9 fraction.
The subject of series [9] is Salmonella typhimurium. Nature of the series: Induction of mutagenesis in Salmonella typhimurium TA98 up to 5000 ug/plate by Ames test in presence of rat liver S9 fraction.
Series [10] relates to Salmonella typhimurium. Nature of the series: Induction of mutagenesis in Salmonella typhimurium TA100 at 16 ug/plate by Ames test in presence of rat liver S9 fraction relative to control.
Series [11] relates to Salmonella typhimurium. Nature of the series: Induction of mutagenesis in Salmonella typhimurium TA98 at 500 ug/plate by Ames test in presence of rat liver S9 fraction relative to control.
The test system of series [12] is Salmonella typhimurium. The series can be described thus: Induction of mutagenesis in Salmonella typhimurium TA100 at 500 ug/plate by Ames test in presence of rat liver S9 fraction relative to control.

In the case of `Nc1ccc(-c2cccc(F)c2)cc1`, the Activity result in the series with Salmonella typhimurium [1] and in the series on Salmonella typhimurium [2] was “Non-toxic” in each case. Besides, the figures for the “fold change (FC)” value in the series with Salmonella typhimurium [3] and with Salmonella typhimurium [4] were 38 and 13, respectively.
With `Nc1ccc(-c2ccccc2)cc1Cl`, the Activity result in the series with Salmonella typhimurium [1] and with Salmonella typhimurium [2] was “Non-toxic” in each case. Besides, the entries for the “fold change (FC)” value in the series with Salmonella typhimurium [5] and in the series on Salmonella typhimurium [6] were 54 and 37, respectively.
`Nc1ccc(-c2ccc(F)cc2)cc1`: the Activity result in the series on Salmonella typhimurium [1] and in the series with Salmonella typhimurium [2] was “Non-toxic” throughout. The “fold change (FC)” value in the series with Salmonella typhimurium [3] turned out to be 43; with Salmonella typhimurium [4] it was 21.
For `Nc1ccc(-c2ccccc2)c(F)c1`, the Activity result with Salmonella typhimurium [1] and in the series with Salmonella typhimurium [2] was “Non-toxic” each time. The “fold change (FC)” value in the series with Salmonella typhimurium [3] is on record as 2; in the series with Salmonella typhimurium [4], 3.
In the case of `CS(=O)(=O)NCc1ccc(-c2ccc(N)cc2F)c(Cl)c1`, the Activity result in the series on Salmonella typhimurium [1], in the series on Salmonella typhimurium [2] and in the series on Salmonella typhimurium [8] was “Non-toxic” throughout. Also, in the series with Salmonella typhimurium [7], the “fold change (FC)” value is given as 3.
On to `N#Cc1cc(Cl)ccc1-c1ccc(N)cc1F`, for which the Activity result in the series on Salmonella typhimurium [1], in the series with Salmonella typhimurium [2], with Salmonella typhimurium [9] and with Salmonella typhimurium [8] was “Non-toxic” throughout.
As to `Nc1ccc(-c2cccc(Cl)c2)cc1`, the Activity entry in the series with Salmonella typhimurium [1] and in the series with Salmonella typhimurium [2] was “Non-toxic” in each case. Moreover, the “fold change (FC)” value came to 47 with Salmonella typhimurium [3] and 12 in the series with Salmonella typhimurium [6].
On to `Nc1ccc(-c2ccccc2Cl)cc1`, for which the Activity result in the series with Salmonella typhimurium [1] and with Salmonella typhimurium [2] was “Non-toxic” each time. Besides, the “fold change (FC)” value worked out at 11 with Salmonella typhimurium [3] and 5 in the series with Salmonella typhimurium [4].
`Nc1ccc(-c2ccccc2F)cc1`: the Activity entry with Salmonella typhimurium [1] and in the series on Salmonella typhimurium [2] was “Non-toxic” in each case. Moreover, the “fold change (FC)” value in the series on Salmonella typhimurium [3] was 26; in the series with Salmonella typhimurium [4], 10.
`Nc1ccc(-c2ccccc2F)c(F)c1`: the Activity result in the series on Salmonella typhimurium [1], in the series on Salmonella typhimurium [2], in the series on Salmonella typhimurium [9] and in the series on Salmonella typhimurium [8] was “Non-toxic” throughout.
As for `Nc1ccc(-c2ccccc2)cc1F`, the Activity result in the series on Salmonella typhimurium [1] and in the series on Salmonella typhimurium [2] was “Non-toxic” throughout. The “fold change (FC)” value with Salmonella typhimurium [10] is 27; in the series on Salmonella typhimurium [5], 54.
With `Nc1ccc(-c2c(F)cccc2Cl)c(F)c1`, the Activity result in the series on Salmonella typhimurium [1], in the series with Salmonella typhimurium [2], with Salmonella typhimurium [9] and with Salmonella typhimurium [8] was “Non-toxic” in each case.
Take `Nc1ccc(-c2ccc(F)cc2F)c(F)c1`: the Activity result in the series with Salmonella typhimurium [1], in the series with Salmonella typhimurium [2], with Salmonella typhimurium [9] and in the series with Salmonella typhimurium [8] was “Non-toxic” each time.
On to `Nc1ccc(-c2ccccc2Cl)c(F)c1`, for which the Activity entry with Salmonella typhimurium [1], in the series on Salmonella typhimurium [2], with Salmonella typhimurium [9] and in the series on Salmonella typhimurium [8] was “Non-toxic” each time.
For `N#Cc1cc(N)ccc1-c1ccccc1Cl`, the Activity entry in the series with Salmonella typhimurium [1], with Salmonella typhimurium [2], with Salmonella typhimurium [9] and with Salmonella typhimurium [8] was “Non-toxic” throughout.
Take `Nc1ccc(-c2ccccc2)c(Cl)c1`: the Activity entry in the series with Salmonella typhimurium [1], with Salmonella typhimurium [2], in the series on Salmonella typhimurium [9] and in the series with Salmonella typhimurium [8] was “Non-toxic” throughout.
Regarding `Nc1ccc(-c2c(F)cccc2F)cc1`, the Activity result with Salmonella typhimurium [1] and in the series with Salmonella typhimurium [2] was “Non-toxic” in each case. In addition, the “fold change (FC)” value was determined as 7 in the series with Salmonella typhimurium [11] and 3 with Salmonella typhimurium [4].
As to `Nc1ccc(-c2ccc(Cl)cc2)cc1`, the Activity result in the series with Salmonella typhimurium [1] and in the series on Salmonella typhimurium [2] was “Non-toxic” in each case. Besides, the “fold change (FC)” value with Salmonella typhimurium [3] is 54; in the series on Salmonella typhimurium [12], 14.
For the molecule `Nc1ccc(-c2c(F)cccc2F)c(F)c1`, the Activity result with Salmonella typhimurium [1], in the series with Salmonella typhimurium [2], with Salmonella typhimurium [9] and in the series with Salmonella typhimurium [8] was “Non-toxic” each time.
On to `N#Cc1ccc(-c2ccc(N)cc2F)c(Cl)c1`, for which the Activity result with Salmonella typhimurium [1], in the series with Salmonella typhimurium [2], with Salmonella typhimurium [9] and in the series on Salmonella typhimurium [8] was “Non-toxic” throughout.

These data come from ChEMBL document CHEMBL2046442, “Rationally designing safer anilines: the challenging case of 4-aminobiphenyls” (J Med Chem, 2012).
